Test results as given in patent US12697367B2, “Medicament for improving or preventing symptoms relating to retina and/or light reception and method for screening for substance capable of improving or preventing symptoms relating to retina and/or light reception” (Osaka University, priority 2018, dated 2026).

Assays:
[1] = system: BALB/c mice with light-induced damage (blue LED light); assay: Light-induced damage experiment in mice: immunofluorescence staining of the photoreceptor layer of the retina; assay type: in vivo; settings: tacrolimus 10 mg/kg subcutaneously every day for 6 days
Experimental: For dark adaptation, BALB/c mice aged 4 weeks (Japan SLC, Inc.) were housed in the dark for 12 hours. […] For control mice, DMSO was administered. Mydriatic eye drops, […] Pharmaceutical Co., Ltd.), were administered in the dark 30 minutes before completion of dark adaptation. The mice were placed in a box with four mirrored walls and a mirrored floor, and exposed to blue light from a blue LED light. The wavelength of the blue LED light was about 450 nm, and the light reaching the mice was about 7000 lx. After exposure to blue light for 3 hours, the mice were housed under normal light conditions (about 30 lx light from fluorescent lamps) for 9 hours. This dark/light cycle repeated as one cycle for 6 days. In other words, administration of the drug and exposure to blue light (3 hours) were performed every day for 6 days to induce light-induced damage. On the next day following the last exposure to blue light, the mice were euthanized and the eyes were harvested. The specimens were fixed in 4% paraformaldehyde/PBS (phosphate buffer saline) at room temperature for 5 minutes. The specimens were then washed with PBS, and embedded in O.C.T. compound (Sakura Finetek). Retinal cryosections of 20 μm thick were sliced with a cryostat, mounted on glass slides, and dried at room temperature. The sections were washed twice with PBS, and blocked with blocking buffer (5% normal donkey serum and 0.1% TritonX-100 in PBS) at room temperature for 1 hour. The sections were reacted with primary antibodies at 4° C. overnight. The sections were washed three times with PBS, and reacted with secondary antibodies at room temperature for 2 hours. The primary antibodies used in this study were anti-Rhodopsin antibody (rhodopsin, rabbit polyclonal, Santa Cruz, 1:500 dilution), anti-S-opsin antibody (S-opsin (blue cone opsin), goat polyclonal, Santa Cruz, 1:500 dilution), and anti-M-opsin antibody (M-opsin (green cone opsin), rabbit polyclonal, Millipore, 1:500 dilution). […] All the fluorescence images were acquired under a confocal laser scanning microscope (LSM 700, Carl Zeiss).

[2] = system: BALB/c mice with light-induced damage (blue LED light); assay: Light-induced damage experiment in mice: measurement of thickness of photoreceptor layer; assay type: in vivo; settings: tacrolimus 10 mg/kg subcutaneously every day for 6 days; blue light about 450 nm, about 7000 lx, 3 hours daily; vs DMSO control; FIG. 3
Experimental: For dark adaptation, BALB/c mice aged 4 weeks (Japan SLC, Inc.) were housed in the dark for 12 hours. […] For control mice, DMSO was administered. Mydriatic eye drops, Cyplegin (Santen Pharmaceutical Co., Ltd.), were administered in the dark 30 minutes before completion of dark adaptation. The mice were placed in a box with four mirrored walls and a mirrored floor, and exposed to blue light from a blue LED light. The wavelength of the blue LED light was about 450 nm, and the light reaching the mice was about 7000 lx. After exposure to blue light for 3 hours, the mice were housed under normal light conditions (about 30 lx light from fluorescent lamps) for 9 hours. This dark/light cycle repeated as one cycle for 6 days. In other words, administration of the drug and exposure to blue light (3 hours) were performed every day for 6 days to induce light-induced damage.
Mouse retinal sections prepared in the same manner as above were washed twice with PBS, and the nuclei were stained with DAPI. The thickness of the photoreceptor layer was measured as the distance from the optic nerve. Specifically, the images were acquired under a confocal laser scanning microscope (LSM 700, Carl Zeiss), and the thickness of the photoreceptor layer was measured using the image analysis software Metamorph (Molecular Devices).

SMILES: C=CC[C@@H]1/C=C(\C)C[C@H](C)C[C@H](OC)[C@H]2O[C@@](O)(C(=O)C(=O)N3CCCC[C@H]3C(=O)O[C@H](/C(C)=C/[C@@H]3CC[C@@H](O)[C@H](OC)C3)[C@H](C)[C@@H](O)CC1=O)[C@H](C)C[C@@H]2OC [tacrolimus, (3S,4R,5S,8R,9E,12S,14S,15R,16S,18R,19R,26aS)-5,19-Dihydroxy-3-{(1E)-2-[(1R,3R,4R)-4-hydroxy-3-methoxycyclohexyl]-1-methylethenyl}-14,16-dimethoxy-4,10,12,18-tetramethyl-8-(prop-2-en-1-yl)-15,19-epoxy-5,6,8,11,12,13,14,15,16,17,18,19,24,25,26,26a-hexadecahydro-3H-pyrido[2,1-c][1,4]oxaazacyclotricosine-1,7,20,21(4H,23H)-tetrone monohydrate]
- structure of the outer segment of the rod photoreceptor cells (anti-Rhodopsin antibody staining) ([1]; blue light about 450 nm, about 7000 lx, 3 hours daily, vs DMSO control, FIG. 1): maintained and comparable to that of control mice without light-induced damage
- structure of the cone photoreceptor cells (anti-S-opsin and anti-M-opsin antibody staining) ([1]; blue light about 450 nm, about 7000 lx, 3 hours daily, vs DMSO control, FIG. 2): maintained and comparable to that of control mice without light-induced damage
- degeneration of photoreceptor cells due to light exposure (overall conclusion) ([1]; mice with light-induced damage): inhibits the degeneration of photoreceptor cells due to light exposure
- thickness of the photoreceptor layer [2]: maintained and comparable to that of control mice without light-induced damage
